Test results from ChEMBL document CHEMBL2150913, “Novel Benzoisoxazole as Partial Agonist of the 5-HT4 Receptor: Patent Highlight” (ACS Med Chem Lett, 2012).

Legend:
[1] = system: Brain; test: AUC in rat brain at 5 mg/kg, sc; assay type: ADME, organism-based; set-up: dose 5 mg/kg, route subcutaneous; details: in vivo
[2] = system: Plasma; test: AUC in rat plasma at 5 mg/kg, sc; assay type: ADME, organism-based; set-up: dose 5 mg/kg, route subcutaneous; details: in vivo
[3] = Cytotoxicity against human THLE cells assessed as cell health and cell depletion; assay type: cell-based

- AUC [1]: 1790 ng·h/g
- AUC [2]: 1760 ng·h/g
SMILES: OC1(CN2CCC(COc3noc4cccc(O[C@@H]5CCOC5)c34)CC2)CCOCC1 [PF-04995274]
- Activity [3]: 300 µM
